From patent publication US5236901A, “Treatment for irritable bowel syndrome” (Research Corporation Technologies, Inc., priority 1991, dated 1993)
No end group written: not given here.

Columns and labels:
Sprague-Dawley rats [1] = experiment: Small and large intestinal transit (geometric center method) and fecal output after exogenous CRF; assay type: in vivo, rat
Procedure: (§1) Female Sprague-Dawley rats (150-200 g) are used in all tests described herein. The animals are housed in groups of five in a temperature-controlled room on a 12 hour light-dark cycle (7:00 AM to 7:00 PM) and are allowed water and rat chow ad libitum. Animals are allowed at least one week to recover from shipping before experiments are performed. Gastrointestinal transit, a measure of the propulsive motor activity of the intestine, is evaluated by the geometric center method (Miller et al., 1981, J. Pharmacol. Methods 6:211-217), in which a nonabsorable radioactive marker, ^51 Cr (0.2 ml) as sodium chromate in distilled water, is instilled directly into the proximal duodenum and proximal colon via Silastic cannulas surgically implanted under Equithesin anesthesia 3-5 days earlier. Thirty-five minutes after administration of the chromium, the animals are killed, and the stomach and intestine are removed and counted for gamma radiation. Gastric emptying is evaluated by quantitating the percent radioactivity emptied from the stomach in a 15 minute period. Radiochromium in distilled water (0.2 ml) is administered by oral gavage, and the animals are killed and emptying assessed 15 minutes later. CRF or vehicle is administered intravenously or intracerebroventricularly immediately before ^51 Cr.

plasma ACTH = experiment: Plasma ACTH concentrations by radioimmunoassay after CRF; assay type: in vivo, rat; conditions: CRF 0.3 ug i.v.; for Plasma ACTH Concentration: mean ± SE
Procedure: CRF and alpha-helical CRF-(9-41) are purchased from Bachem. Drugs are diluted in distilled water, and NaOH (0.1 N) added to the solution, 1 ul at a time, until the compounds [CRF and alpha-helical CRF-(9-41)]go into solution, at a pH of ~6.8. The solutions are aliquotted into 25- and 50-ug supplies, lyophilized, and stored in a desiccator at 4°-8° C. until needed. Radioimmunoassay kits for determination of plasma levels of ACTH are purchased from ImmunoNuclear.
The following example compares the endocrine response to a low dose of exogenous CRF (0.3 ug i.v.) and to stress-induced release of endogenous CRF by measuring plasma ACTH concentrations by radioimmunoassay in animals that are wrap restrained or treated with CRF.
Blood is drawn from an indwelling jugular cannula, surgically placed under Equithesin anesthesia 3 days earlier. Blood (0.2 ml) is drawn 10 minutes before treatment, as well as 5, 10, 20, 30, 45, and 60 minutes after CRF administration or wrap-restraint stress. Blood is also drawn at the same time points from control animals are briefly ether anesthetized but which are not stressed or drug treated.

Sprague-Dawley rats [2] = experiment: Gastric emptying of 51Cr after exogenous CRF; assay type: in vivo, rat; conditions: CRF 1.0 to 10.0 ug i.v. or i.c.v.; FIG. 1A
Procedure: as §1

Sprague-Dawley rats [3] = experiment: Intestinal transit after alpha-helical CRF-(9-41) alone or against exogenous CRF; assay type: in vivo, rat
Procedure: as §1, with “Gastrointestinal” for “Female Sprague-Dawley rats (150-200 g) are used in all tests described herein. The animals are housed in groups of five in a temperature-controlled room on a 12 hour light-dark cycle (7:00 AM to 7:00 PM) and are allowed water and rat chow ad libitum. Animals are allowed at least one week to recover from shipping before experiments are performed. Gastrointestinal”
Since CRF is likely to play an essential role in initiating both endocrine and autonomic responses to stress, it is probable that CRF mediates the effects of stress on the gut and that blockade of CRF receptors would lessen stress-induced disordered transit. […] The antagonist, alpha-helical CRF-[…] (50 ug, i.v. or i.c.v.), has no effect on small or larger intestinal transit itself when administered into the brain or the bloodstream.

Sprague-Dawley rats [4] = experiment: Wrap-restraint stress-induced intestinal dysfunction, antagonist pretreatment; assay type: in vivo, rat
Procedure: as §1, with “Gastrointestinal” for “Female Sprague-Dawley rats (150-200 g) are used in all tests described herein. The animals are housed in groups of five in a temperature-controlled room on a 12 hour light-dark cycle (7:00 AM to 7:00 PM) and are allowed water and rat chow ad libitum. Animals are allowed at least one week to recover from shipping before experiments are performed. Gastrointestinal”
Wrapping-restraint stress, a relatively mild, nonulcerogenic model of restraint is used in all stress studies. Stressed animals are lightly anesthetized with ether, and their trunk, shoulders, and upper forelimbs are wrapped in a confining harness of masking tape. Control animals are lightly ether anesthetized but are not wrapped. Radiochromium is then administered, and the animals are killed 35 minutes later to assess intestinal transit. All stress experiments are performed in the late afternoon (4:00 to 7:00 PM) due to a strong circadian influence on the degree of intestinal dysfunction associated with stress at different times of the day. […]

pituitary ACTH release = conditions: Rivier et al., 1984, cited from earlier work
[5] = antagonist 50 ug i.v. or i.c.v., CRF 3 and 10 ug i.v. or i.c.v., same route

Q: What does the source list for “Corticotropin-releasing factor (SQEPPISLDLTFHLLREVLEMTKADQLAQQAHSNRKLLDIA; ends and bridges not checked; UniProt P01142 148-188, looked up) [CRF, peptide comprising 41 amino acid residues, first characterized from ovine hypothalamic extracts; purchased from Bachem]”?
A: Response of the gut to CRF compared with restraint stress (Sprague-Dawley rats [1]; CRF 0.3 ug i.c.v., gastric emptying, small and large intestinal transit, fecal pellet output, FIG. 2): identical both in direction and degree; Fecal pellet output (Sprague-Dawley rats [1]; CRF 0.3 to 10.0 ug): increased; Small intestinal transit (Sprague-Dawley rats [1]; CRF 0.3 to 10.0 ug i.v. or i.c.v., FIG. 1B): inhibits; Colonic transit (Sprague-Dawley rats [1]; CRF 0.3 to 10.0 ug i.v. or i.c.v., FIG. 1C): increases; Diarrhea (Sprague-Dawley rats [1]; CRF at higher doses): diarrhea; Lowest effective dose (Sprague-Dawley rats [1]; i.c.v., gastric and intestinal effects): 0.3 µg; Effectiveness of i.v. versus i.c.v. administration (Sprague-Dawley rats [1]; intravenously versus intracerebroventricularly administered CRF): equally effective; Peak levels of ACTH compared with wrap-restraint stress (plasma ACTH): very similar; Time course of ACTH release compared with stress-induced ACTH release (plasma ACTH): more rapid time course; Plasma ACTH Concentration (plasma ACTH; 5 minutes after administration): 619 ± 70 pg/mL; Plasma ACTH Concentration (plasma ACTH; 10 minutes after administration): 494 ± 108 pg/mL; Plasma ACTH Concentration (plasma ACTH; 20 minutes after administration): 265 ± 93 pg/mL; Plasma ACTH Concentration (plasma ACTH; 30 minutes after administration): 174 ± 24 pg/mL; Plasma ACTH Concentration (plasma ACTH; 45 minutes after administration): 146 ± 33 pg/mL; Plasma ACTH Concentration (plasma ACTH; 60 minutes after administration): 141 ± 49 pg/mL; Plasma ACTH Concentration (plasma ACTH; time head +10 (10 minutes before treatment)): 64 ± 4 pg/mL; Gastric emptying (Sprague-Dawley rats [2]): inhibited in a dose-dependent manner

Q: For alpha-helical CRF-(9-41), which “Large intestinal transit, antagonist alone” value (Sprague-Dawley rats [3]; 50 ug, i.v. or i.c.v.) is on record?
A: has no effect

Q: And the “Small intestinal transit, antagonist alone” value (Sprague-Dawley rats [3]; 50 ug, i.v. or i.c.v.)?
A: has no effect

Q: What about the “Effects of exogenous CRF on large intestinal transit” value (Sprague-Dawley rats [3]; [5]) of the same substance?
A: effectively antagonizes

Q: What about the “Effects of exogenous CRF on small intestinal transit” value (Sprague-Dawley rats [3]; [5]) of the same substance?
A: effectively antagonizes

Q: And the “Stress-induced inhibition of small intestinal transit” value (Sprague-Dawley rats [4]; 50 ug i.c.v. or i.v. immediately before stress, FIG. 3A)?
A: did not affect

Q: And the “Stress-induced increase in large intestinal transit” value (Sprague-Dawley rats [4]; 50 ug i.c.v. or i.v. immediately before stress, FIG. 3B)?
A: completely blocked

Q: And the “Stress-induced increase in fecal pellet output” value (Sprague-Dawley rats [4]; 50 ug i.c.v. or i.v. immediately before stress, FIG. 3C)?
A: significantly diminished

Q: And the “Stress-induced increase in colonic transit, higher dose versus 50 ug” value (Sprague-Dawley rats [4]; 100 μg i.c.v.)?
A: did not result in a further decrease

Q: What about the “Stress-induced increase in fecal excretion, higher dose versus 50 ug” value (Sprague-Dawley rats [4]; 100 μg i.c.v.) of the same substance?
A: did not result in a further decrease

Q: And the “Stress-induced inhibition of small intestinal transit” value (Sprague-Dawley rats [4]; 100 μg i.c.v.)?
A: did not affect

Q: What about the Agonist activity (pituitary ACTH release) of the same substance?
A: little agonist activity

Q: What about the “Effects of CRF and stress on pituitary ACTH release” value (pituitary ACTH release; both in vivo and in vitro) of the same substance?
A: effectively antagonizes
